Results: PMC9313812, “The Pseudo‐Natural Product Rhonin Targets RHOGDI” (Angewandte Chemie (International Ed. in English), 2022)

Target: T1, SMO (Mus musculus, UniProt P56726)
T1 construct: expressed in transfected cells; host or cells: HEK293T
Experiment: SMO binding assay (BODIPY-cyclopamine displacement)
Type: cell-based
Conditions: HEK293T cells expressing SMO, 5 nM BODIPY-cyclopamine
Method: Supplementary Figure S2. […] HEK293T cells […]
ectopically expressing SMO were treated with different concentrations of 7a or Vismodegib and DMSO as controls in the presence of BODIPY-cyclopamine (5 nM) for 5 h. The graph […]
activated cell sorting analysis. Data are mean values of three independent experiments (n=3) ± […]
using a three-fold dilution series starting from a concentration of 30 μM. Half-maximal inhibitory concentrations (IC50) were calculated using the Quattro software suite (Quattro Research, Planegg, Germany) or GraphPad Prism 7 (GraphPad, USA).
The effect of test compounds on the viability of C3H/10T1/2 cells was determined by CellTiter-Glo Luminescence cell viability assay (Promega). Cells were treated as described for the osteogenesis assay prior to addition of the CellTiter-Glo® reagent according to manufacturer’s protocol. Compounds causing at least a 50% reduction in the osteogenesis assay and retaining cell viability of at least 80% were considered as hits. Dose-response analyses were performed for all hit compounds using a three-fold dilution series starting from a concentration of 30 μM. Half-maximal inhibitory concentrations (IC50) were calculated using the Quattro software suite (Quattro Research GmbH).
GLI-dependent reporter gene assay
Shh-LIGHT2 cells were seeded (2.5×10^4 per well) in 96-well plates. After incubation for 16 h, medium was replaced by low serum-containing medium (0.5% FCS) supplemented with 1.5 μM purmorphamine and various concentrations of the compounds or DMSO as a control and cells were incubated for 48 h. Firefly and Renilla luciferase activities were determined by means of the Dual-Luciferase® Reporter Assay System (Promega) according to the manufacturer’s protocol and luminescence was measured using the Spark plate reader (Tecan, […]
HEK293T cells were seeded (1.5×10^4 per well) on poly-D-lysine-coated coverslips placed in a 24-well plate. 24 h later cells were transfected with the SMO-expressing plasmid (pGEN-mSMO) using FuGENE HD (Promega) according to the manufacturer’s protocol. […]

T1 sequence (P56726 33-793): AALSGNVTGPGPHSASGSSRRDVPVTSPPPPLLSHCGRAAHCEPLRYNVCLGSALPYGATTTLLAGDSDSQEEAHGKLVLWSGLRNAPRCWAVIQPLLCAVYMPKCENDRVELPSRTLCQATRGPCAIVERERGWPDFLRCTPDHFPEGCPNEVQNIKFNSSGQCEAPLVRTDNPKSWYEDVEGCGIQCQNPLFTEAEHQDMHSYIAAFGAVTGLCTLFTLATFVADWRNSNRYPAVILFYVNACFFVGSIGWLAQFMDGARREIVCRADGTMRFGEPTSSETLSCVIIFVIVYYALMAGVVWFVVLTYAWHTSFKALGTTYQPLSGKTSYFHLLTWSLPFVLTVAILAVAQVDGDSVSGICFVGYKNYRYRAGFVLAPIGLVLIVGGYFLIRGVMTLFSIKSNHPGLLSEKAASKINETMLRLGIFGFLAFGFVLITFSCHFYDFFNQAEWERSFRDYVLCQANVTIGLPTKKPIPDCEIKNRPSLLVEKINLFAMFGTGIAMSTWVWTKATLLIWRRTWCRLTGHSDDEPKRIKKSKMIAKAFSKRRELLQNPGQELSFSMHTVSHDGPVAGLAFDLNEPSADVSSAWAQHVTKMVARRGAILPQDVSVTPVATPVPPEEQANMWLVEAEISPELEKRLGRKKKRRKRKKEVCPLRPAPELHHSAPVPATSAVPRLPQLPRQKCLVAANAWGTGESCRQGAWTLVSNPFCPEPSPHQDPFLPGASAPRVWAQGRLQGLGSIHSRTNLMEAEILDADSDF

Structure (SMILES)	Displacement of BODIPY-cyclopamine from SMO (in words)	Displacement of BODIPY-cyclopamine from SMO (in words) (listed as 7 a)
COC(=O)C1(C(CC(=O)c2ccccc2)c2ccccc2)N=C(c2ccc(Br)cc2)C2C(=O)N(C)C(=O)C21 (stereo not drawn) [7a]	does not displace	did not displace
COC(=O)C1(C(CC(=O)c2cccnc2)c2ccccc2)N=C(c2ccc(Br)cc2)C2C(=O)N(C)C(=O)C21 (stereo not drawn) [7l]	partial decrease	
